Patent publication US20130040983A1, “RAF KINASE INHIBITORS” (priority 2010, published 2013)

Biological target: V600E mutated B-RAF (Homo sapiens, UniProt P15056, V600E)
Experiment: In vitro assay for inhibition of mutant B-RAF kinase (recombinant V600E B-RAF, MEK (K97R) substrate)
Assay type: biochemical
Conditions: 10 nM recombinant V600E B-RAF, 1 μM MEK (K97R) substrate; class symbols; read-out: IC50 (μM) V600E B-Raf
Description: (§1) The ability of compounds described herein to inhibit RAF kinase activity was determined from biochemical kinase assays using recombinant RAF proteins as known in the art.
(§2) Solutions of varying concentrations of test compounds or vehicle were added to 10 nM recombinant wild-type B-RAF or V600E mutated B-RAF proteins incubated in the presence of different concentrations of ATP and 1 μM MEK (K97R) as substrate, as previously described (Wilhelm, S. M., et al., Cancer Res., 64: 7099-7109, 2004; Mason, C. S., et al., EMBO J. 18: 2137-2148, 1999; Marais, R., et al., J. Biol. Chem., 272: 4378-4383, 1997). At least triplicate determinations for each individual test compound concentration were made and data plotted as mean±standard deviation relative to the control vehicle.

Sequence of V600E mutated B-RAF (P15056 whole entry V600E): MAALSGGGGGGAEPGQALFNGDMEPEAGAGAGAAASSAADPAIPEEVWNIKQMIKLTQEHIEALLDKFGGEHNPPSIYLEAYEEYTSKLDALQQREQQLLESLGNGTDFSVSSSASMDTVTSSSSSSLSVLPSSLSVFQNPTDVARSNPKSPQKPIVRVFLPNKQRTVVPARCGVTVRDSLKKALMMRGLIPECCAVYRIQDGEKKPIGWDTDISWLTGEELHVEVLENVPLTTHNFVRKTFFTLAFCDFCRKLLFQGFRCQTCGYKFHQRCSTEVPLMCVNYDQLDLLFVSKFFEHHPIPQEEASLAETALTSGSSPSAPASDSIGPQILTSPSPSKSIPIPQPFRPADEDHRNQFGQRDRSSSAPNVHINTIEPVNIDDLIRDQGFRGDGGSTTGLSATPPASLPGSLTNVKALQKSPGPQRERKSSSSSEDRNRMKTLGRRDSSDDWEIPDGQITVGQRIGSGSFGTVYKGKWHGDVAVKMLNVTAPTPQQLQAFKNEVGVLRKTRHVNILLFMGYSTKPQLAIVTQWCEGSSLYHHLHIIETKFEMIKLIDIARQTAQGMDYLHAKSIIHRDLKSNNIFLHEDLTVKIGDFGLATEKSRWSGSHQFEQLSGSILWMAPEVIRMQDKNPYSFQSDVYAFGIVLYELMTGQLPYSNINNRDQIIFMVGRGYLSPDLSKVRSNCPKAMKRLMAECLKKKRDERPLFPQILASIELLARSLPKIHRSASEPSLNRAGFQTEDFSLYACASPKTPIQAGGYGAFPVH

| IC50 | SMILES |
| --- | --- |
| 1 to 10 µM | NC(=O)c1cccc(-c2[nH]c(-c3ccccc3)nc2-c2ccncc2)c1 [Example 21, 3-(2-phenyl-4-(pyridin-4-yl)-1H-imidazol-5-yl)benzamide] |
| 0.1 to 1 µM | O=C(O)c1cccc(-c2cn(-c3ccccc3)nc2-c2ccncc2)c1 [Example 3, 3-(1-phenyl-3-(pyridin-4-yl)-1H-pyrazol-4-yl)benzoic acid] |
| 0.1 to 1 µM | O=C(O)c1cccc(-c2[nH]c(-c3ccccc3)nc2-c2ccncc2)c1F [Example 8, 2-fluoro-3-(2-phenyl-4-(pyridin-4-yl)-1H-imidazol-5-yl)benzoic acid] |
| < 0.1 µM | O=C(O)c1cc(-c2cn(-c3ccccc3)nc2-c2ccncc2)ccc1Cl [Example 15, 2-chloro-5-(1-phenyl-3-(pyridin-4-yl)-1H-pyrazol-4-yl)benzoic acid] |
| 0.1 to 1 µM | O=C(O)c1cc(Cl)cc(-c2[nH]c(-c3ccccc3)nc2-c2ccncc2)c1 [Example 14, 3-chloro-5-(2-phenyl-4-(pyridin-4-yl)-1H-imidazol-5-yl)benzoic acid] |
| 0.1 to 1 µM | O=C(O)c1cccc(-c2[nH]c(-c3ccccc3)nc2-c2ccncc2)c1 [Example 1, 3-(2-phenyl-4-(pyridin-4-yl)-1H-imidazol-5-yl)benzoic acid] |
| < 0.1 µM | O=C(O)c1cc(-c2[nH]c(-c3ccccc3)nc2-c2ccncc2)ccc1Cl [Example 10, 2-chloro-5-(2-phenyl-4-(pyridin-4-yl)-1H-imidazol-5-yl)benzoic acid] |
| 1 to 10 µM | CCCS(=O)(=O)Nc1cccc(-c2[nH]c(-c3ccccc3)nc2-c2ccncc2)c1 [Example 5, N-(3-(2-phenyl-4-(pyridin-4-yl)-1H-imidazol-5-yl)phenyl)propane-1-sulfonamide] |
| 0.1 to 1 µM | O=C(O)c1cc(-c2[nH]c(-c3ccccc3)nc2-c2ccncc2)ccc1F [Example 7, 2-fluoro-5-(2-phenyl-4-(pyridin-4-yl)-1H-imidazol-5-yl)benzoic acid] |
| 0.1 to 1 µM | Cc1ccc(-c2[nH]c(-c3ccccc3)nc2-c2ccncc2)cc1C(=O)O [Example 27, 2-methyl-5-(2-phenyl-4-(pyridin-4-yl)-1H-imidazol-5-yl)benzoic acid] |
| 0.1 to 1 µM | CS(=O)(=O)Nc1cc(-c2[nH]c(-c3ccccc3)nc2-c2ccncc2)ccc1Cl [Example 12, N-(2-chloro-5-(2-phenyl-4-(pyridin-4-yl)-1H-imidazol-5-yl)phenyl)methanesulfonamide] |
| 1 to 10 µM | CCS(=O)(=O)Nc1cccc(-c2[nH]c(-c3ccccc3)nc2-c2ccncc2)c1 [Example 4, N-(3-(2-phenyl-4-(pyridin-4-yl)-1H-imidazol-5-yl)phenyl)ethanesulfonamide] |
| 1 to 10 µM | O=C(O)c1ccc(F)c(-c2[nH]c(-c3ccccc3)nc2-c2ccncc2)c1 [Example 9, 4-fluoro-3-(2-phenyl-4-(pyridin-4-yl)-1H-imidazol-5-yl)benzoic acid] |
| 0.1 to 1 µM | O=C(O)c1cccc(-c2nn(-c3ccccc3)cc2-c2ccncc2)c1 [Example 13, 3-(1-phenyl-4-(pyridin-4-yl)-1H-pyrazol-3-yl)benzoic acid] |
| 0.1 to 1 µM | O=C(O)c1cc(F)cc(-c2[nH]c(-c3ccccc3)nc2-c2ccncc2)c1 [Example 6, 3-fluoro-5-(2-phenyl-4-(pyridin-4-yl)-1H-imidazol-5-yl)benzoic acid] |

Same assay, conditions: 10 nM recombinant V600E B-RAF, 1 μM MEK (K97R) substrate; read-out: BRAF-V600E IC50

| IC50 | SMILES |
| --- | --- |
| 0.13 µM | O=C(O)c1cccc(-c2[nH]c(-c3ccccc3)nc2-c2ccncc2)c1 [Example 1, 3-(2-phenyl-4-(pyridin-4-yl)-1H-imidazol-5-yl)benzoic acid] |

Biological target: wild-type B-RAF (Homo sapiens, UniProt P15056)
Experiment: In vitro assay for inhibition of B-RAF kinase (recombinant wild-type B-RAF, MEK (K97R) substrate)
Assay type: biochemical
Conditions: 10 nM recombinant wild-type B-RAF, 1 μM MEK (K97R) substrate; read-out: BRAF IC50
Description: as §1
as §2, with “A-RAF, wild-type B-RAF,” for “B-RAF”, “wild-type C-RAF” for “V600E mutated B-RAF”
as §2

Sequence of wild-type B-RAF (P15056 whole entry): as the sequence (P15056 whole entry V600E) above, with E600V counted along it

| IC50 | SMILES |
| --- | --- |
| 0.8 µM | CS(=O)(=O)Nc1cccc(-c2[nH]c(-c3ccccc3)nc2-c2ccncc2)c1 [Example 2, N-(3-(2-phenyl-4-(pyridin-4-yl)-1H-imidazol-5-yl)phenyl)methanesulfonamide] |
| 3.1 µM | O=C(O)c1cccc(-c2[nH]c(-c3ccccc3)nc2-c2ccncc2)c1 [Example 1, 3-(2-phenyl-4-(pyridin-4-yl)-1H-imidazol-5-yl)benzoic acid] |
